Measured values from PubChem BioAssay AID248 (DTP/NCI, 2004).
Where “and” joins values, the source holds several entries; their conditions need not be identical. Identical values can stand only once. Inconclusive results and toxic doses are left out. No stated cut-off is given here; in the data, active means T/C of 150% or more; inactive means T/C below 125%.

System: L1210 leukemia ip in BDF1 mice, survival T/C
Assay: NCI In Vivo Anticancer Drug Screen. Data for tumor model L1210 Leukemia (intraperitoneal) in B6D2F1 (BDF1) mice
Settings: endpoint: mean survival time, higher = longer survival
Summary of the method: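 Transplantable tumor model; survival measured in treated vs vehicle control mice. Value = treated/control.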

[1] = dose: 100.0 mg/kg/injection, schedule: Q01DX001 (ip), vehicle: Klucel (hydroxypropylcellulose) (HPC)
[2] = dose: 200.0 mg/kg/injection, schedule: Q01DX001 (ip), vehicle: Klucel (hydroxypropylcellulose) (HPC)
[3] = dose: 400.0 mg/kg/injection, schedule: Q01DX001 (ip), vehicle: Klucel (hydroxypropylcellulose) (HPC)
[4] = dose: 100.0 mg/kg/injection, schedule: Q01DX001 (ip), vehicle: saline
[5] = dose: 200.0 mg/kg/injection, schedule: Q01DX001 (ip), vehicle: saline
[6] = dose: 400.0 mg/kg/injection, schedule: Q01DX001 (ip), vehicle: saline
[7] = dose: 100.0 mg/kg/injection, schedule: Q01DX009 (ip), vehicle: saline
[8] = dose: 100.0 mg/kg/injection, schedule: Q04DX003 (ip), vehicle: saline
[9] = dose: 200.0 mg/kg/injection, schedule: Q01DX009 (ip), vehicle: saline
[10] = dose: 200.0 mg/kg/injection, schedule: Q04DX003 (ip), vehicle: saline
[11] = dose: 400.0 mg/kg/injection, schedule: Q04DX003 (ip), vehicle: saline
[12] = dose: 100.0 mg/kg/injection, schedule: Q01DX009 (ip), vehicle: saline with Tween-80
[13] = dose: 12.5 mg/kg/injection, schedule: Q01DX009 (ip), vehicle: Klucel (hydroxypropylcellulose) (HPC)
[14] = dose: 25.0 mg/kg/injection, schedule: Q01DX009 (ip), vehicle: Klucel (hydroxypropylcellulose) (HPC)
[15] = dose: 25.0 mg/kg/injection, schedule: Q04DX003 (ip), vehicle: Klucel (hydroxypropylcellulose) (HPC)
[16] = dose: 50.0 mg/kg/injection, schedule: Q04DX003 (ip), vehicle: Klucel (hydroxypropylcellulose) (HPC)

Measured: T/C

CCCCCCCCCCCCCCCCCC(=O)CCCCCCCCCCCCCCCCC
inactive: [1] 88 % of control | [2] 96 % of control | [3] 91 % of control

Cc1nc2ncn(C3OC(CO)C(O)C3O)c2nc1C (stereo not drawn)
inactive: dose: 100.0 mg/kg/injection, schedule: Q01DX005 (ip), vehicle: saline 95 % of control | dose: 200.0 mg/kg/injection, schedule: Q01DX005 (ip), vehicle: saline 90 % of control

Cc1ccc(NC(=O)N(CCCl)N=O)cc1C
active: dose: 4.0 mg/kg/injection, schedule: Q01DX009 (ip), vehicle: carboxymethylcellulose (CMC) 158 % of control | dose: 8.8 mg/kg/injection, schedule: Q01DX009 (ip), vehicle: carboxymethylcellulose (CMC) 249 % of control | dose: 13.3 mg/kg/injection, schedule: Q01DX009 (ip), vehicle: carboxymethylcellulose (CMC) 159 % of control | dose: 19.0 mg/kg/injection, schedule: Q01DX001 (ip), vehicle: carboxymethylcellulose (CMC) 173 % of control | dose: 29.0 mg/kg/injection, schedule: Q01DX001 (ip), vehicle: carboxymethylcellulose (CMC) 214 % of control | dose: 44.0 mg/kg/injection, schedule: Q01DX001 (ip), vehicle: carboxymethylcellulose (CMC) 210 % of control and 298 % of control | dose: 66.0 mg/kg/injection, schedule: Q01DX001 (ip), vehicle: carboxymethylcellulose (CMC) 257 % of control | dose: 100.0 mg/kg/injection, schedule: Q01DX001 (ip), vehicle: carboxymethylcellulose (CMC) 218 % of control and 263 % of control
inactive: dose: 0.5 mg/kg/injection, schedule: Q01DX009 (ip), vehicle: carboxymethylcellulose (CMC) 114 % of control | dose: 1.0 mg/kg/injection, schedule: Q01DX009 (ip), vehicle: carboxymethylcellulose (CMC) 119 % of control | dose: 1.5 mg/kg/injection, schedule: Q01DX001 (ip), vehicle: carboxymethylcellulose (CMC) 114 % of control | dose: 2.0 mg/kg/injection, schedule: Q01DX009 (ip), vehicle: carboxymethylcellulose (CMC) 103 % of control | dose: 6.0 mg/kg/injection, schedule: Q01DX001 (ip), vehicle: carboxymethylcellulose (CMC) 119 % of control | dose: 30.0 mg/kg/injection, schedule: Q01DX009 (ip), vehicle: carboxymethylcellulose (CMC) 103 % of control

COC(=O)Cc1oc(=O)n(-c2ccccc2)c(=O)c1C(=O)OC
inactive: dose: 12.5 mg/kg/injection, schedule: Q04DX002 (ip), vehicle: gum acacia 94 % of control | dose: 25.0 mg/kg/injection, schedule: Q04DX002 (ip), vehicle: gum acacia 116 % of control | dose: 50.0 mg/kg/injection, schedule: Q04DX002 (ip), vehicle: gum acacia 108 % of control

COc1ccc2c(c1OC(C)=O)-c1cc(OC(C)=O)cc3c1C(C2)N(C)CC3 (stereo not drawn)
inactive: dose: 25.0 mg/kg/injection, schedule: Q04DX003 (ip), vehicle: DMSO 93 % of control | dose: 50.0 mg/kg/injection, schedule: Q04DX003 (ip), vehicle: DMSO 95 % of control | dose: 100.0 mg/kg/injection, schedule: Q04DX003 (ip), vehicle: DMSO 106 % of control

Cc1cccc(C(Cc2ccc(N3C(N)=NC(N)=NC3(C)C)cc2)C(=O)Nc2ccc(S(=O)(=O)F)cc2)c1 (stereo not drawn)
inactive: [4] 108 % of control | [5] 110 % of control | [6] 98 % of control

CCN(CC)CCN(C)C
inactive: [7] 102 % of control | [8] 105 % of control | [9] 107 % of control | [10] 97 % of control | [11] 97 % of control

O=S(=O)(O)c1ccc(Br)cc1
inactive: [7] 116 % of control | [8] 98 % of control | [9] 108 % of control | [10] 103 % of control | dose: 400.0 mg/kg/injection, schedule: Q01DX009 (ip), vehicle: saline 108 % of control | [11] 104 % of control

Cc1ncc(C)c(=O)[nH]1
inactive: dose: 44.0 mg/kg/injection, schedule: Q01DX Z (ip), vehicle: saline 100 % of control | dose: 67.0 mg/kg/injection, schedule: Q01DX Z (ip), vehicle: saline 105 % of control | dose: 100.0 mg/kg/injection, schedule: Q01DX Z (ip), vehicle: saline 105 % of control | [8] 93 % of control | dose: 150.0 mg/kg/injection, schedule: Q01DX Z (ip), vehicle: saline 91 % of control | [10] 96 % of control

Cc1ccn(C)n1
inactive: dose: 100.0 mg/kg/injection, schedule: Q04DX002 (ip), vehicle: saline 103 % of control | dose: 200.0 mg/kg/injection, schedule: Q04DX002 (ip), vehicle: saline 97 % of control | dose: 400.0 mg/kg/injection, schedule: Q04DX002 (ip), vehicle: saline 93 % of control

CS(=O)(=O)C(=Cc1ccccc1Cl)S(C)(=O)=O
inactive: [12] 92 % of control | dose: 200.0 mg/kg/injection, schedule: Q01DX009 (ip), vehicle: saline with Tween-80 100 % of control | dose: 400.0 mg/kg/injection, schedule: Q01DX009 (ip), vehicle: saline with Tween-80 101 % of control

c1ccc(N2CN(c3ccccc3)CN(c3ccccc3)C2)cc1
inactive: [1] 97 % of control | dose: 100.0 mg/kg/injection, schedule: Q04DX002 (ip), vehicle: Klucel (hydroxypropylcellulose) (HPC) 101 % of control | [2] 92 % of control | dose: 200.0 mg/kg/injection, schedule: Q04DX002 (ip), vehicle: Klucel (hydroxypropylcellulose) (HPC) 101 % of control | [3] 92 % of control | dose: 400.0 mg/kg/injection, schedule: Q04DX002 (ip), vehicle: Klucel (hydroxypropylcellulose) (HPC) 97 % of control

O=S1(=O)c2ccccc2C(=NO)c2ccccc21
inactive: dose: 75.0 mg/kg/injection, schedule: Q01DX009 (ip), vehicle: other 98 % of control | [4] 97 % of control | dose: 150.0 mg/kg/injection, schedule: Q01DX009 (ip), vehicle: other 98 % of control | [5] 94 % of control | dose: 300.0 mg/kg/injection, schedule: Q01DX009 (ip), vehicle: other 93 % of control | [6] 97 % of control

CC(=O)C1C=NCC(C)(C)N=CC(C(C)=O)C(C)=NCCCN=C1C.[Ni] (stereo not drawn)
inactive: [13] 95 % of control | dose: 12.5 mg/kg/injection, schedule: Q04DX003 (ip), vehicle: Klucel (hydroxypropylcellulose) (HPC) 96 % of control | [14] 100 % of control | [15] 91 % of control | dose: 50.0 mg/kg/injection, schedule: Q01DX009 (ip), vehicle: Klucel (hydroxypropylcellulose) (HPC) 97 % of control | [16] 102 % of control

O/N=C/c1ccccc1
inactive: dose: 66.0 mg/kg/injection, schedule: Q01DX009 (ip), vehicle: saline with Tween-80 87 % of control | [12] 96 % of control | dose: 150.0 mg/kg/injection, schedule: Q01DX009 (ip), vehicle: saline with Tween-80 95 % of control

C=C[CH2][Sn]([Br])([Br])[Br]
inactive: dose: 50.0 mg/kg/injection, schedule: Q01DX009 (ip), vehicle: saline 115 % of control | [7] 95 % of control | [9] 86 % of control

NC(=O)N1CCN(CCCN2c3ccccc3Sc3cc(Cl)ccc32)CC1
inactive: dose: 6.25 mg/kg/injection, schedule: Q01DX009 (ip), vehicle: Klucel (hydroxypropylcellulose) (HPC) 95 % of control | [13] 110 % of control | [14] 115 % of control | [15] 113 % of control | [16] 109 % of control | dose: 100.0 mg/kg/injection, schedule: Q04DX003 (ip), vehicle: Klucel (hydroxypropylcellulose) (HPC) 115 % of control

CC(=O)C1C(=O)C(=O)OC1C (stereo not drawn)
inactive: dose: 100.0 mg/kg/injection, schedule: Q04DX003 (ip), vehicle: alcohol 94 % of control | dose: 200.0 mg/kg/injection, schedule: Q04DX003 (ip), vehicle: alcohol 96 % of control

CC(=O)CCC1(C)OC(=O)C(C)C2C1CCC1(C)C(=O)CCC21 (stereo not drawn)
inactive: dose: 50.0 mg/kg/injection, schedule: Q01DX001 (sc), vehicle: steriod suspending solution 101 % of control | dose: 100.0 mg/kg/injection, schedule: Q01DX001 (sc), vehicle: steriod suspending solution 103 % of control | dose: 200.0 mg/kg/injection, schedule: Q01DX001 (sc), vehicle: steriod suspending solution 113 % of control | dose: 400.0 mg/kg/injection, schedule: Q01DX001 (sc), vehicle: steriod suspending solution 101 % of control

CN1CCC(OC(=O)C(F)(c2ccccc2)c2ccccc2)CC1
inactive: dose: 20.0 mg/kg/injection, schedule: Q01DX001 (ip), vehicle: saline 98 % of control
